Results on one compound are retold here after ChEMBL document CHEMBL3351632, “Design and synthesis of 4-heteroaryl 1,2,3,4-tetrahydroisoquinolines as triple reuptake inhibitors” (ACS Med Chem Lett, 2014).

Series [1] can be described thus: Oral bioavailability in Sprague-Dawley rat at 10 mg/kg. The format is ADME, organism-based. The settings on record: in vivo.
Series [2] can be described thus: Clearance in cynomolgus monkey at 2 mg/kg, po and 0.5 mg/kg, iv. Format: ADME, organism-based, Macaca fascicularis. The settings on record: in vivo.
Series [3] relates to Liver microsome. Description: Drug metabolism in human liver microsomes assessed as formation of (+)-2-(4-(benzo[b]thiophen-5-yl)-2-methyl-1,2,3,4-tetrahydroisoquinolin-7-ylamino)ethanol. The format is ADME.
The nature of series [4]: Oral bioavailability at steady state in cynomolgus monkey at 2 mg/kg. As to conditions: in vivo. The format is ADME, organism-based, Macaca fascicularis.
A short description of series [5]: Clearance in Sprague-Dawley rat at 10 mg/kg, po and 1 mg/kg, iv. Format: ADME, organism-based. As to conditions: in vivo.
Series [6] is described as follows: Ratio of drug uptake in brain to plasma of Sprague-Dawley rat at 10 mg/kg, po measured after 1 hr. The format is ADME, organism-based. Further details: dose 10 mg/kg, route oral. As to conditions: read-out: BPR.
Series [7] in a line: Volume of distribution at steady state in Sprague-Dawley rat at 10 mg/kg, po and 1 mg/kg, iv. The format is ADME, organism-based. The settings on record: in vivo, read-out: Vdss.
The nature of series [8]: Volume of distribution at steady state in cynomolgus monkey at 2 mg/kg, po and 0.5 mg/kg, iv. Format: ADME, organism-based, Macaca fascicularis. The settings on record: in vivo, read-out: Vdss.
Series [9] deals with Liver microsome. Description: Drug metabolism in rat liver microsomes assessed as formation of (+)-2-(4-(benzo[b]thiophen-5-yl)-2-methyl-1,2,3,4-tetrahydroisoquinolin-7-ylamino)ethanol. The format is ADME.
The species entered for series [10] is Rattus norvegicus. Description: Drug metabolism in rat assessed as formation of (+)-2-(4-(benzo[b]thiophen-5-yl)-2-methyl-1,2,3,4-tetrahydroisoquinolin-7-ylamino)ethanol. The format is ADME, organism-based. As to conditions: in vivo.

In the case of `CN1Cc2cc(N3CCOCC3)ccc2[C@@H](c2ccc3sccc3c2)C1`, the bioavailability in series [1] turned out to be 81%; in [4], 39%. For the same compound, the clearance in series [2] turned out to be 27 mL/min/kg; in series [5], 47 mL/min/kg. Further, the figures for the Drug metabolism result in series [3], in series [9] and in [10] were “metabolite_detected”, “metabolite_detected” and “metabolite_notdetected”, respectively. In addition, the Kp at 1 h in series [6] worked out at 3. In addition, the results for the Vd in series [7] and in [8] were 14 L/kg and 16 L/kg, respectively.
